# Reference: article PMC7756341, “Liposomal FRET Assay Identifies Potent Drug‐Like Inhibitors of the Ceramide Transport Protein (CERT)” (Chemistry (Weinheim an Der Bergstrasse, Germany), 2020)
# “And” between values parts separate entries of the source, which are not always exact repeats. Identical values can stand only once.
# Tested on: HeLa cells
# Assay: Sphingolipid content of treated HeLa cells by quantitative mass spectrometry
# Assay type: cell-based
# Conditions: for Cer16 / Cer18 / Cer20 / Cer22 / Cer24 / Cer24:1 / Cer total / S1P / SM16 / SM18 / SM20 / SM22 / SM24 / SM24:1 / SM total / Sph / ratio total SM/Cer: HeLa, 42h, single replicates; for Cer16 / Cer18 / Cer20 / Cer22 / Cer24 / Cer24:1 / Cer total / S1P / SM16 / SM18 / SM20 / SM22 / SM24 / SM24:1 / SM total / Sph: 500.000 cells per sample
# Description: 5.2 Cellular experiment for lipidomic analysis
# Hela cells were cultured in six well plates (177000 cells per well) under standard growth conditions (DMEM with 4mM L-glutamine, 10% FBS, 1% Penicillin-Streptomycin; CO2 incubator with […]
# 37°C, 5% CO2). […]
# After incubation, […]
# the adherent cells were washed twice with ice-cold PBS and harvested by treatment with trypsin.
# Cells were counted using a Countess II cell counter ( Invitrogen) and adjusted to 500.000 cells per sample. Each sample was then treated as described below.
# 6. Details for experimental lipidomics
# Cells were subjected to lipid extraction using 1.5 mL methanol/chloroform (2:1, v:v) as described. The extraction solvent contained C17-ceramide (Cer17) and C16 -d31-sphingomyelin (d31-SM16) (both Avanti Polar Lipids, Alabaster, USA) as internal standards. Chromatographic separations were achieved on a 1260 Infinity HPLC (Agilent Technologies, Waldbronn, Germany) equipped with a Poroshell 120 EC-C8 column (3.0 × 150 mm, 2.7 µm; Agilent Technologies). A mobile phase system consisting of water (solvent A) and acetonitrile/methanol (1:1, v:v; solvent B), both acidified with 0.1% formic acid, was used for gradient elution at an initial composition of 40:60 (A:B, v:v) and a flow rate of 0.5 mL/min. MS/MS analyses were carried out using a 6490 triple-quadrupole mass spectrometer (Agilent Technologies) operating in the positive electrospray ionization mode (ESI+). The following ion source parameters were set: sheath gas temperature, 375 °C; sheath gas flow, 12 L/min of nitrogen; nebulizer pressure, 30 psi; drying gas temperature, 200 °C; drying gas flow, 15 L/min of nitrogen; capillary voltage, 4000 V; nozzle voltage, 1500 V; iFunnel high pressure RF voltage, 150 V and iFunnel low pressure RF voltage, 60 V. The following mass transitions were recorded (collision energies of 25 eV for all transitions): ceramides: m/z […]
# with MassHunter Software (Agilent Technologies). Significance of differences between two samples was calculated by student’s t -test. Asterisks indicate significant differences between treated and untreated samples: * p<0.05; ** p<0.01; *** p<0.005.
# Table S1. Sphingolipid content of treated cells.
# (1 picture or pasted object on this page, not shown here)
smiles,measurement,setting,value
"CCCC(=O)OCOC(=O)C1=C(C)NC(C)=C(C(=O)OC)C1c1cccc(Cl)c1Cl (centres unmarked) [6B11, Clevidipine butyrate]",effect on SM/Cer rate,HeLa cells,dramatically increased
same,effect on total sphingomyelin,"HeLa cells, 48 hours, serum-reduced medium",no significant changes
same,Cer16,1 µM,"35,47 pmol/sample and 30,33 pmol/sample and 32,28 pmol/sample"
same,Cer18,1 µM,"3,21 pmol/sample and 3,62 pmol/sample and 2,31 pmol/sample"
same,Cer20,1 µM,"0,82 pmol/sample and 1,87 pmol/sample and 0,75 pmol/sample"
same,Cer22,1 µM,"6,64 pmol/sample and 6,96 pmol/sample and 5,21 pmol/sample"
same,Cer24,1 µM,"21,95 pmol/sample and 20,24 pmol/sample and 18,20 pmol/sample"
same,Cer24:1,1 µM,"41,58 pmol/sample and 36,60 pmol/sample and 35,42 pmol/sample"
same,Cer total,1 µM,"109,68 pmol/sample and 101,56 pmol/sample and 92,23 pmol/sample"
same,S1P,1 µM,"1,30 pmol/sample (2×) and 1,12 pmol/sample"
same,SM16,1 µM,"1664,57 pmol/sample and 1753,19 pmol/sample and 1827,88 pmol/sample"
same,SM18,1 µM,"49,35 pmol/sample and 48,17 pmol/sample and 50,13 pmol/sample"
same,SM20,1 µM,"16,44 pmol/sample and 17,01 pmol/sample and 16,12 pmol/sample"
same,SM22,1 µM,"97,77 pmol/sample and 109,23 pmol/sample and 104,57 pmol/sample"
same,SM24,1 µM,"148,40 pmol/sample and 164,36 pmol/sample and 157,65 pmol/sample"
same,SM24:1,1 µM,"734,55 pmol/sample and 781,78 pmol/sample and 776,18 pmol/sample"
same,SM total,1 µM,"2711,09 pmol/sample and 2873,72 pmol/sample and 2932,53 pmol/sample"
same,Sph,1 µM,"2,93 pmol/sample and 3,14 pmol/sample and 2,69 pmol/sample"
same,ratio total SM/Cer,1 µM,"29,4 and 26,2 and 28,9"
same,Cer16,2.5 µM,"31,11 pmol/sample and 34,56 pmol/sample and 32,33 pmol/sample"
same,Cer18,2.5 µM,"2,90 pmol/sample and 3,36 pmol/sample and 2,45 pmol/sample"
same,Cer20,2.5 µM,"1,10 pmol/sample and 1,04 pmol/sample and 0,67 pmol/sample"
same,Cer22,2.5 µM,"6,09 pmol/sample and 6,54 pmol/sample and 4,24 pmol/sample"
same,Cer24,2.5 µM,"19,85 pmol/sample and 19,17 pmol/sample and 13,13 pmol/sample"
same,Cer24:1,2.5 µM,"35,16 pmol/sample and 36,98 pmol/sample and 34,53 pmol/sample"
same,Cer total,2.5 µM,"96,21 pmol/sample and 101,65 pmol/sample and 87,36 pmol/sample"
same,S1P,2.5 µM,"1,11 pmol/sample (2×) and 1,10 pmol/sample"
same,SM16,2.5 µM,"1754,78 pmol/sample and 1844,30 pmol/sample and 1802,54 pmol/sample"
same,SM18,2.5 µM,"52,01 pmol/sample and 48,63 pmol/sample and 47,35 pmol/sample"
same,SM20,2.5 µM,"16,63 pmol/sample and 16,52 pmol/sample and 14,33 pmol/sample"
same,SM22,2.5 µM,"104,73 pmol/sample and 101,64 pmol/sample and 87,68 pmol/sample"
same,SM24,2.5 µM,"164,67 pmol/sample and 154,96 pmol/sample and 126,92 pmol/sample"
same,SM24:1,2.5 µM,"701,62 pmol/sample and 752,78 pmol/sample and 753,00 pmol/sample"
same,SM total,2.5 µM,"2780,44 pmol/sample and 2845,61 pmol/sample and 2919,05 pmol/sample"
same,Sph,2.5 µM,"3,54 pmol/sample and 2,83 pmol/sample and 2,99 pmol/sample"
same,ratio total SM/Cer,2.5 µM,"31,8 and 29,6 and 28,7"
same,Cer16,5 µM,"29,66 pmol/sample and 34,26 pmol/sample and 31,66 pmol/sample"
same,Cer18,5 µM,"2,65 pmol/sample and 3,21 pmol/sample and 2,71 pmol/sample"
same,Cer20,5 µM,"0,74 pmol/sample and 0,90 pmol/sample and 0,79 pmol/sample"
same,Cer22,5 µM,"5,38 pmol/sample and 6,67 pmol/sample and 6,09 pmol/sample"
same,Cer24,5 µM,"17,46 pmol/sample and 20,37 pmol/sample and 20,18 pmol/sample"
same,Cer24:1,5 µM,"36,92 pmol/sample and 40,53 pmol/sample and 39,54 pmol/sample"
same,Cer total,5 µM,"92,81 pmol/sample and 105,93 pmol/sample and 100,96 pmol/sample"
same,S1P,5 µM,"1,11 pmol/sample and 1,25 pmol/sample and 1,08 pmol/sample"
same,SM16,5 µM,"1762,30 pmol/sample and 1782,59 pmol/sample and 1722,69 pmol/sample"
same,SM18,5 µM,"53,21 pmol/sample and 52,89 pmol/sample and 50,26 pmol/sample"
same,SM20,5 µM,"17,74 pmol/sample and 18,28 pmol/sample and 16,92 pmol/sample"
same,SM22,5 µM,"109,54 pmol/sample and 111,84 pmol/sample and 106,91 pmol/sample"
same,SM24,5 µM,"166,35 pmol/sample and 172,87 pmol/sample and 164,46 pmol/sample"
same,SM24:1,5 µM,"783,66 pmol/sample and 796,71 pmol/sample and 771,15 pmol/sample"
same,SM total,5 µM,"2892,80 pmol/sample and 2935,19 pmol/sample and 2832,39 pmol/sample"
same,Sph,5 µM,"2,83 pmol/sample and 2,13 pmol/sample and 3,03 pmol/sample"
same,ratio total SM/Cer,5 µM,"31,2 and 27,7 and 28,1"
